The source of these data is US20210188856A1, “CRYSTAL FORM OF HYDROCHLORIDE OF PYRAZOLOHETEROARYL DERIVATIVE AND PREPARATION METHOD” (JIANGSU HENGRUI MEDICINE CO., LTD., priority 2018, published 2021).

This assay deals with T1, human TLR8 (Homo sapiens, UniProt Q9NR97).
T1 construct: host or cells: HEK-Blue hTLR8 (HEK293-derived) stably transfected cells
T1 sequence (Q9NR97 27-1041): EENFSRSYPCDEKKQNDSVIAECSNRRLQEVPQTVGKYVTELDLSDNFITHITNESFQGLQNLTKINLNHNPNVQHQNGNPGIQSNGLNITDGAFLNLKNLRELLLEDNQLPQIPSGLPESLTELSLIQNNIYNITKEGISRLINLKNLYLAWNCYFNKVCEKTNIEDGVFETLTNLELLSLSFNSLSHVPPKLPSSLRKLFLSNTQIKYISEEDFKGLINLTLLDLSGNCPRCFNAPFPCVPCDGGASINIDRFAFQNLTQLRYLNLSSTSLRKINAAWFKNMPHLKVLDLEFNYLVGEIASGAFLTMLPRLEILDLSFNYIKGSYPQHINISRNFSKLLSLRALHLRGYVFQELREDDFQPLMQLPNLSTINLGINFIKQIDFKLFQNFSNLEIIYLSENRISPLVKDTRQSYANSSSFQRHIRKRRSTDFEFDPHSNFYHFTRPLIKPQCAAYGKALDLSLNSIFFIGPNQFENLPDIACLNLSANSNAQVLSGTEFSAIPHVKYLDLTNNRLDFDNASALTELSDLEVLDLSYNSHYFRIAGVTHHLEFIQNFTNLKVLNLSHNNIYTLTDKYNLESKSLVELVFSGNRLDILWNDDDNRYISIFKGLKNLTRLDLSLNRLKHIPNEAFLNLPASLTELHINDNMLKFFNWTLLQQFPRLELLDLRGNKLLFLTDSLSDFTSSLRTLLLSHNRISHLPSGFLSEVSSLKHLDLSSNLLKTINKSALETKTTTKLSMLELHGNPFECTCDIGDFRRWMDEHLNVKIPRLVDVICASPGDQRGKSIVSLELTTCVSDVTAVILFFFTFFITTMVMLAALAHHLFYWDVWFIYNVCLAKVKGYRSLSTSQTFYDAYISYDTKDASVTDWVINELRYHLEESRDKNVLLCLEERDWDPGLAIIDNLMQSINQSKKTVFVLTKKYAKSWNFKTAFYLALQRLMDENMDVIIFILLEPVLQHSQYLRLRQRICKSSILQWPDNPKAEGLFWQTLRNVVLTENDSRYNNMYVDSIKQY
Put plainly: Agonistic effect on human TLR8 (HEK-Blue hTLR8 cells). It counts as cell-based. How it is done: The agonistic effect of the compound represented by formula (I) on the hTLR8 protein expressed in HEK-Blue™ hTLR8 stably transfected cells was determined by the following experimental method:
A bag of HEK-Blue detection dry powder was dissolved in 50 mL of water free of endotoxin, and the solution was then placed in an incubator at 37° C. for 10 minutes followed by sterile filtration to prepare a HEK-Blue detection medium. The compound was firstly formulated into a 20 mM stock solution, then diluted with pure DMSO to a maximum concentration of 6×10^6 nM, and a total of 10 points were obtained by a 3-fold gradient dilution. The compound was firstly diluted 20-fold with the medium, then 20 μL of the diluted compound was added to each well.
The supernatant was removed from the HEK-Blue™ hTLR8 cells, to which 2-5 mL of pre-warmed PBS was then added. The cells were placed in an incubator for 1-2 minutes, gently pipetted, and counted by trypan blue staining. The cells were re-suspended in the HEK-Blue detection medium and the concentration was adjusted to 2.2×10^5 cells/mL. 180 μL of cells was added to the above 96-well plate added with 20 μL of the compound, and incubated at 37° C. for 6-16 hours.
The plate was read with a microplate reader at a wavelength of 620 nm. The corresponding OD values were obtained, and the EC50 value of the compound was calculated by Graphpad Prism.

On to `CCCCOc1nc(N)c2cnn(Cc3ccc(CN4CCCC4)cc3)c2n1` [compound represented by formula (I), 6-Butoxy-1-(4-(pyrrolidin-1-ylmethyl)benzyl)-1H-pyrazolo[3,4-d]pyrimidin-4-amine], for which, where the note is “HEK-Blue hTLR8 cells”, the “agonistic effect on human TLR8 (in words)” value is reported as “no agonistic effect”. Also, the “selectivity for TLR7 over TLR8 (in words)” value (from TLR7 and TLR8 results) is listed as “high selectivity”.
